Data reported in ChEMBL document CHEMBL4038288, “Novel quinoxalinyl chalcone hybrid scaffolds as enoyl ACP reductase inhibitors: Synthesis, molecular docking and biological evaluation” (Bioorg Med Chem Lett, 2017).
Values after ≈ are worked out from the molar mass of the structure shown. Active and inactive are the calls of the source. No cut-off for these calls is given here.

What was measured:
Escherichia coli = assay: Antimicrobial activity against Escherichia coli after 18 to 24 hrs by agar well-diffusion method; type: functional
Candida albicans = assay: Antimicrobial activity against Candida albicans after 18 to 24 hrs by agar well-diffusion method; type: functional
[1] = target: T1, Enoyl-[acyl-carrier-protein] reductase [NADH] (Mycobacterium tuberculosis) (UniProt P9WGR1); assay: Inhibition of Mycobacterium tuberculosis H37Rv enoyl ACP reductase assessed as reduction in bacterial growth after 5 days by microplate alamar blue assay
T1 sequence (whole entry): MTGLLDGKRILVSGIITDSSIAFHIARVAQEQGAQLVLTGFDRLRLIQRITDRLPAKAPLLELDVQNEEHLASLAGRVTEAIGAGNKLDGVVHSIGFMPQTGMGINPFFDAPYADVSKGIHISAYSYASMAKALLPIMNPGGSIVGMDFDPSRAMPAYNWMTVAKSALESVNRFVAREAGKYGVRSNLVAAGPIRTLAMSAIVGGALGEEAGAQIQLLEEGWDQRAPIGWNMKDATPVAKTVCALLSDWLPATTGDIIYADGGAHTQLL

Staphylococcus aureus = assay: Antimicrobial activity against Staphylococcus aureus after 18 to 24 hrs by agar well-diffusion method; type: functional
MCF7 [2] = assay: Cytotoxicity against human MCF7 cells assessed as cell lysis at 10 ug/ml after 48 hrs by MTT assay; type: functional, cell-based
MCF7 [3] = assay: Cytotoxicity against human MCF7 cells assessed as cell lysis at 20 ug/ml after 48 hrs by MTT assay; type: functional, cell-based
MCF7 [4] = assay: Cytotoxicity against human MCF7 cells assessed as cell lysis at 50 ug/ml after 48 hrs by MTT assay; type: functional
MCF7 [5] = assay: Anticancer activity against human MCF7 cells after 48 hrs by MTT assay; type: functional, cell-based
MCF7 [6] = assay: Cytotoxicity against human MCF7 cells assessed as cell lysis at 40 ug/ml after 48 hrs by MTT assay; type: functional
MCF7 [7] = assay: Cytotoxicity against human MCF7 cells assessed as cell lysis at 30 ug/ml after 48 hrs by MTT assay; type: functional
MCF7 [8] = assay: Cytotoxicity against human MCF7 cells assessed as cell lysis after 48 hrs by MTT assay; type: functional

Compound	MIC (Escherichia coli) [µg/mL]	MIC (Candida albicans) [µg/mL]	MIC [1] [µg/mL]	MIC (Staphylococcus aureus) [µg/mL]	Activity (MCF7 [2])	Activity (MCF7 [3])	Activity (MCF7 [4])	IC50 (MCF7 [5])	Activity (MCF7 [6])	Activity (MCF7 [7])	Activity (MCF7 [8]) [%]
O=C(/C=C/c1cnc2ccccc2n1)c1cccc(Br)c1	5 (≈ 14.7 µM)	25 (≈ 73.7 µM)	25 (≈ 73.7 µM)	25 (≈ 73.7 µM)	–	–	–	–	–	–	–
O=C(/C=C/c1cnc2ccccc2n1)c1cccc(O)c1	5 (≈ 18.1 µM)	10 (≈ 36.2 µM)	3.12 (≈ 11.3 µM)	10 (≈ 36.2 µM)	–	–	–	–	–	–	–
O=C(/C=C/c1cnc2ccccc2n1)c1ccc([N+](=O)[O-])cc1	25 (≈ 81.9 µM)	50 (≈ 164 µM)	25 (≈ 81.9 µM)	50 (≈ 164 µM)	–	–	–	–	–	–	–
O=C(/C=C/c1cnc2ccccc2n1)c1ccc(F)cc1	25 (≈ 89.8 µM)	25 (≈ 89.8 µM)	25 (≈ 89.8 µM)	75 (≈ 270 µM)	inactive	inactive	inactive	50 µg/mL (≈ 180 µM)	inactive	inactive	–
O=C(/C=C/c1cnc2ccccc2n1)c1ccc(O)cc1	5 (≈ 18.1 µM)	–	3.12 (≈ 11.3 µM)	5 (≈ 18.1 µM)	inactive	inactive	inactive	–	inactive	inactive	–
Nc1ccc(C(=O)/C=C/c2cnc3ccccc3n2)cc1	25 (≈ 90.8 µM)	25 (≈ 90.8 µM)	25 (≈ 90.8 µM)	50 (≈ 182 µM)	Active	Active	50%	25 µg/mL (≈ 90.8 µM)	50%	50%	–
O=C(/C=C/c1cnc2ccccc2n1)c1ccccc1	50 (≈ 192 µM)	25 (≈ 96 µM)	25 (≈ 96 µM)	50 (≈ 192 µM)	–	–	–	–	–	–	–
NC(=O)c1cnccn1	–	–	3.12 (≈ 25.3 µM)	–	–	–	–	–	–	–	–
O=C(/C=C/c1cnc2ccccc2n1)c1ccc2ccccc2c1	25 (≈ 80.6 µM)	25 (≈ 80.6 µM)	25 (≈ 80.6 µM)	25 (≈ 80.6 µM)	–	–	–	–	–	–	–
O=C(/C=C/c1cnc2ccccc2n1)c1ccncc1	25 (≈ 95.7 µM)	50 (≈ 191 µM)	6.25 (≈ 23.9 µM)	50 (≈ 191 µM)	–	–	–	–	–	–	–
OC(Cn1cncn1)(Cn1cncn1)c1ccc(F)cc1F [FLUCONAZOLE]	–	16 (≈ 52.2 µM)	–	–	–	–	–	–	–	–	–
Nc1cccc(C(=O)/C=C/c2cnc3ccccc3n2)c1	25 (≈ 90.8 µM)	25 (≈ 90.8 µM)	25 (≈ 90.8 µM)	50 (≈ 182 µM)	–	–	–	–	–	–	–
O=C(/C=C/c1cnc2ccccc2n1)c1ccc(Br)cc1	25 (≈ 73.7 µM)	75 (≈ 221 µM)	50 (≈ 147 µM)	75 (≈ 221 µM)	–	–	–	–	–	–	–
CN[C@@H]1[C@H](O[C@H]2[C@H](O[C@H]3[C@H](O)[C@@H](O)[C@H](N=C(N)N)[C@@H](O)[C@@H]3N=C(N)N)O[C@@H](C)[C@]2(O)C=O)O[C@@H](CO)[C@H](O)[C@H]1O	–	–	6.25 (≈ 10.7 µM)	–	–	–	–	–	–	–	–
O=C(O)c1cn(C2CC2)c2cc(N3CCNCC3)c(F)cc2c1=O [CIPROFLOXACIN]	–	–	3.12 (≈ 9.42 µM)	2 (≈ 6.04 µM)	–	–	–	–	–	–	–
O=C(/C=C/c1cnc2ccccc2n1)c1ccc(Cl)cc1	10 (≈ 33.9 µM)	25 (≈ 84.8 µM)	25 (≈ 84.8 µM)	25 (≈ 84.8 µM)	–	–	–	–	–	–	–
O=C(/C=C/c1cnc2ccccc2n1)c1cccc([N+](=O)[O-])c1	25 (≈ 81.9 µM)	25 (≈ 81.9 µM)	25 (≈ 81.9 µM)	50 (≈ 164 µM)	–	–	–	–	–	–	–
COc1cccc2c1C(=O)c1c(O)c3c(c(O)c1C2=O)C[C@@](O)(C(=O)CO)C[C@@H]3O[C@H]1C[C@H](N)[C@H](O)[C@H](C)O1 [DOXORUBICIN]	–	–	–	–	–	–	–	5 to 7.5 µg	–	–	50
COc1ccc(C(=O)/C=C/c2cnc3ccccc3n2)cc1	25 (≈ 86.1 µM)	25 (≈ 86.1 µM)	25 (≈ 86.1 µM)	50 (≈ 172 µM)	–	–	–	–	–	–	–
